Reference: PubChem BioAssay (NCI)
Values joined by “and” are separate entries in the source; they are usually repeats but may differ in a detail not shown here. Equal entries are not always repeated.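 Exposure lasted 48 hours, with cells grown in 96-well plates and compounds tested at five concentrations. GI50 = concentration required for 50% inhibition of growth. TGI: total growth inhibition.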

Legend:
Assay in all cases: NCI-60 cell line screen, 48 h
CAKI-1 renal = system: CAKI-1 renal
KM12 colon = system: KM12 colon
NCI-H460 lung = system: NCI-H460 lung
MOLT-4 leukemia = system: MOLT-4 leukemia
MDA-MB-231 breast = system: MDA-MB-231 breast
ACHN renal = system: ACHN renal
RPMI-8226 leukemia = system: RPMI-8226 leukemia
COLO 205 colon = system: COLO 205 colon
PC-3 prostate = system: PC-3 prostate
CCRF-CEM leukemia = system: CCRF-CEM leukemia

Compound	TGI (CAKI-1 renal)	TGI (KM12 colon) [µM]	TGI (NCI-H460 lung) [µM]	GI50 (MOLT-4 leukemia) [µM]	TGI (MOLT-4 leukemia)	TGI (MDA-MB-231 breast)	TGI (ACHN renal) [µM]	TGI (RPMI-8226 leukemia) [µM]	TGI (COLO 205 colon)	TGI (PC-3 prostate) [µM]	GI50 (CCRF-CEM leukemia) [µM]	TGI (CCRF-CEM leukemia) [µM]	GI50 (CAKI-1 renal) [µM]	GI50 (KM12 colon) [µM]	GI50 (NCI-H460 lung) [µM]	GI50 (MDA-MB-231 breast) [µM]	GI50 (ACHN renal) [µM]	GI50 (RPMI-8226 leukemia) [µM]	GI50 (COLO 205 colon) [µM]	GI50 (PC-3 prostate) [µM]
O=C(O)[C@H](Cc1c[nH]c2ccccc12)N1C(=O)c2ccccc2C1=O	> 100 µM	> 100	> 100	> 100	> 100 µM	> 100 µM	> 100	> 100	> 100 µM	> 100	> 100	> 100	–	–	–	–	–	–	–	–
COC(=O)c1ccc2c(c1)C(=O)c1c-2n(CCCCl)c(=O)c2cc([N+](=O)[O-])ccc12	> 100 µM	> 100	> 100	26	> 100 µM	> 100 µM	> 100	> 100	> 100 µM	> 100	52.8	> 100	65.6	> 100	23.1	> 100	45.2	84.5	> 100	> 100
C=C1CC2(CC(c3ccccc3Cl)OC(c3ccccc3Cl)C2)OC1=O (stereo unspecified)	5.11 µM	7.56	12.6	–	6.19 µM	3.45 µM	9.82	3.84	5.51 µM	6.84	–	10.1	–	–	–	–	–	–	–	–
O=C(CCl)NCCNc1nccc(Nc2ccc(S(=O)(=O)Nc3ccccn3)cc2)n1	10.4 µM	11.6	7.22	1.91	11.9 µM	9.98 µM	10.8	7.6	11.6 µM	7.45	2.19	9.03	2.31	3.12	2.39	2.9	2.6	2.09	3.22	2.5
CN(CCCCCl)P(=O)(OCCS(=O)(=O)CC(NC(=O)CCC(N)C(=O)O)C(=O)NC(C(=O)O)c1ccccc1)OCC1OC(n2ccc(N)nc2=O)C(O)C1O (stereo unspecified)	> 75 µM	> 75	> 75	0.851	> 31.8 µM	> 75 µM	> 75	> 68.8	> 75 µM	> 75	0.632	> 75	11	27.4	6.4	> 75	16.7	14.7	22	2.26
O=C(CC1(O)C(=O)N(Cc2ccccc2)c2ccc(Cl)cc21)c1ccc(C(=O)NCC2CCC3(CC2)OOC2(CCCCC2)OO3)cc1 (stereo unspecified)	0.864 µM	0.782	0.491	1.59	4.56 µM	0.988 µM	0.357	2.18	1.66 µM	9.11	0.274	0.662	0.418	0.268	0.231	0.327	0.18	0.462	0.626	1.33
CC1=CC(C)=NN=C(N)N1S(=O)(=O)c1cc(C)c(Cl)cc1SCc1ccccc1	> 100 µM	> 100	> 100	6.18	> 100 µM	> 100 µM	> 100	> 100	> 100 µM	> 100	9.15	> 100	> 100	34.6	9.22	> 100	24.4	5.93	27.9	6.15
CCN(CC)CCCC(C)Nc1ccnc2cc(Cl)ccc12 (stereo unspecified)	79.7 µM and 55.7 µM	> 100	> 100	62.9	> 100 µM and 50 µM	> 100 µM and 73.4 µM	> 100	69.6	> 100 µM and 38.7 µM	> 100	38.8	> 100	28.8	79.5	66.6	> 100	> 100	–	50.8	98.4
COc1cccc(/C=C/C(=O)c2ccc(SC)cc2)c1OC	35.9 µM	33.4	36.2	8.11	61.6 µM	36.4 µM	33.7	> 100	45 µM	43.8	14.2	97.5	18.4	16.6	17.9	17.3	17.2	5.6	22.6	17
CSc1c(C2=C(c3cn(C)c4ccccc34)C(=O)NC2=O)c2ccccc2n1C	> 20.4 µM	> 25	> 25	1.43	8.78 µM	> 25 µM	> 25	> 7.04	> 25 µM	> 25	0.793	> 17	0.741	0.843	0.832	2.57	0.845	0.813	0.675	0.795
O=C1/C=C/[C@@H](O)[C@@H]2C[C@@H](O)C[C@H]2/C=C/CCC[C@H](CCc2cccc3ccccc23)O1	3.08 µM	0.959	12.2	0.105	2.61 µM	0.119 µM	12.5	2.73	0.152 µM	12	0.136	8.02	0.239	0.032	0.274	0.0464	0.305	0.0847	0.0659	0.065
CSC(=NC#N)S/C=C/C(=O)c1ccccc1	37.2 µM	> 100	> 100	22.6	> 100 µM	> 100 µM	76.9	34.7	> 100 µM	> 100	1.77	15	16.6	> 100	> 100	39.2	28.6	12.3	35.2	33.2
NC(=NCc1ccccc1)C(N=Nc1ccccc1)C(=O)NCc1ccccc1 (stereo unspecified)	15.2 µM	4.65	6.18	5.53	> 100 µM	35.2 µM	39.3	> 100	37.2 µM	4.02	3.54	84.4	3.44	2.04	2.37	14.4	18.1	9.31	14.8	1.84
Cc1c(O)c(N=Nc2nc3ccccc3s2)c2ccccc2c1O	> 50 µM	> 50	> 50	> 50	> 50 µM	> 50 µM	> 50	> 50	> 50 µM	> 50	> 50	> 50	21.1	23.2	28	26.5	19.4	23.6	21.4	32
Cc1ccc2oc(=O)cc(/C(=C3/C=CC=N3)c3ccc[nH]3)c2c1	10.6 µM	1.71	3.52	0.378	2.14 µM	3.07 µM	8.56	1.16	3.49 µM	1.54	0.29	4.01	0.53	0.344	0.353	0.802	0.694	0.297	1.49	0.274
CCCCOC(=O)c1ccc(N)cc1	> 100 µM	> 100	> 100	> 100	> 100 µM	> 100 µM	> 100	> 100	> 100 µM	> 100	48.2	> 100	11.4	29.8	34.3	> 100	8.46	67.2	32.1	9.9
COc1cc(C2CC(c3cccc(Nc4ccnc5cc(Cl)ccc45)c3)=NN2c2ccc(Cl)cc2)cc(OC)c1OC (stereo unspecified)	> 100 µM	93.6	> 100	3.68	> 100 µM	> 100 µM	> 100	> 100	24.5 µM	> 100	4.84	> 100	0.693	0.818	0.772	2.97	1.48	3.69	3.13	0.819
COc1ccc(C=Nc2c(C(=O)Nc3cccc(Cl)c3C)sc3nc(C)c(C(=O)/C=C/c4ccc(OC)cc4)cc23)cc1	> 50 µM	> 43.9	> 29.7	3.68	> 50 µM	2.26 µM	> 50	> 50	23.8 µM	> 50	0.819	> 50	0.652	0.894	1.93	0.383	0.425	1.5	1.82	0.281
Cc1c2ccn(O)cc2c(C)c2c1nc1ccccc12	> 51.7 µM	> 100	37.9	–	16.8 µM	> 100 µM	> 85.7	> 100	> 100 µM	30.2	–	> 60.1	–	–	–	–	–	–	–	–
Cc1c(-c2ccc(C3CCCCC3)cc2)nc2ccc(F)cc2c1C(=O)O	> 100 µM	> 100	> 100	0.0679	> 100 µM	> 100 µM	> 100	> 100	> 100 µM	> 100	0.0858	> 100	0.0815	0.402	0.0461	8.9	0.33	0.273	0.185	0.0797
C[C@H]1/C(=C/C(=O)OCCN(C)C)CC[C@H]2[C@H]1C(=O)C[C@H]1C(C)(C)[C@@H](O)CC[C@]21C	> 100 µM	> 100	> 100	–	> 100 µM	> 100 µM	> 100	> 100	> 100 µM	> 100	–	> 100	–	–	–	–	–	–	–	–
CC1(C)S[C@@H]2[C@H](N3C(=O)c4ccccc4C3=O)CN2[C@H]1NC(=O)N[C@@H]1N2C[C@@H](N3C(=O)c4ccccc4C3=O)[C@H]2SC1(C)C	> 100 µM	> 100	> 100	–	> 100 µM	> 100 µM	> 100	> 100	> 100 µM	> 100	–	> 100	–	–	–	–	–	–	–	–
Cc1nc2c(c(N3CCCc4ccccc43)n1)CCC2	> 100 µM	> 100	> 100	< 0.01	3.07 µM	> 100 µM	> 100	3.47	0.0111 µM	> 100	< 0.01	> 100	< 0.01	< 0.01	< 0.01	0.0137	< 0.01	< 0.01	< 0.01	< 0.01
CCN1CCC(Nc2ccnc3cc(Cl)ccc23)CC1	> 100 µM	> 100	> 100	18.5	> 100 µM	> 100 µM	> 100	78.3	27.1 µM	> 100	36.9	> 100	21.5	25.2	28.7	19.7	33.9	25.9	12.5	24.9
COc1cc2c3cc1Oc1c(OC)c(OC)cc4c1C(=NCC4)Cc1ccc(cc1)Oc1cc(ccc1O)C[C@H]3N(C)CC2	49.1 µM	29.8	39.9	–	66.2 µM	27.8 µM	83.5	47.5	26.3 µM	42.5	–	> 100	–	–	–	–	–	–	–	–
O=C(/C=C/c1ccc(Cl)cc1)c1ccccc(=O)c1O	2.79 µM	6.45	3.04	–	16.2 µM	23.6 µM	6.66	4.79	6.53 µM	20	–	0.773	–	–	–	–	–	–	–	–
